In PMC10539439 (Pharmacological Reports, 2023):
pEC50: −log10 of the molar value. “And” between values parts separate entries of the source, which are not always exact repeats. Equal values may be shown once. Read-outs that look alike come from different tables or passages of the source.

Target: T1, TAAR1 (Homo sapiens, UniProt Q96RJ0)
T1 sequence (Q96RJ0 1-339): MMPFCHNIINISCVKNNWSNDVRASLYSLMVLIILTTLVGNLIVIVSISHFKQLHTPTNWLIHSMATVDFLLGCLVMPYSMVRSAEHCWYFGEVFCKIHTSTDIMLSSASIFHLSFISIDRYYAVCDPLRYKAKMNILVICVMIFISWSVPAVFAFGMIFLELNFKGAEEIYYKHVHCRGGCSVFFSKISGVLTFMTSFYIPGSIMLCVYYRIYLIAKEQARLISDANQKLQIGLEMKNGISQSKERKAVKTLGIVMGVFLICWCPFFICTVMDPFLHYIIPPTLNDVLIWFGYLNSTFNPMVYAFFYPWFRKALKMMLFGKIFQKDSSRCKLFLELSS
Assay: Intrinsic activity, Hit Hunter cAMP assay
Format: cell-based
Experimental: The intrinsic activity study at cells with overexpression of TAAR1 (Eurofins, cat. No. 95-0173C2) was carried out at Eurofins Discoveries (Fremont, USA) using the Hit Hunter cAMP method. This assay monitors the activation of a GPCR via Gi and Gs secondary messenger signaling in a homogenous, non-imaging assay format using a technology developed by DiscoverX called Enzyme Fragment Complementation (EFC) with β-galactosidase (β-Gal) as the functional reporter. The enzyme is split into two complementary portions: EA for Enzyme Acceptor and ED for Enzyme Donor. ED is fused to cAMP and in the assay competes with cAMP generated by cells for binding to a cAMP-specific antibody. Active β-Gal is formed by complementation of exogenous EA to any unbound EDcAMP.
cAMP Hunter cell lines were expanded from freezer stocks according to standard procedures. Cells were seeded in a total volume of 20 µL into white-walled, 384-well microplates and incubated at 37 ℃ for the appropriate time prior to testing. For agonist determination, cells were incubated with a sample to induce a response. Media was aspirated from cells and replaced with 15 µL 2:1 HBSS/10 mM Hepes:cAMP XS + Ab reagent. Intermediate dilution of sample stocks was performed to generate 4X samples in assay buffer. 5 µL of 4 × sample was added to cells and incubated at 37 ℃ or room temperature for 30 or 60 min. Vehicle concentration was 1%. […] Microplates were read following signal generation with a PerkinElmer Envision instrument for chemiluminescent signal detection.

[1] = cAMP, Agonist, Conc(M) 1.00E-07

Clc1cccc(N2CCNCC2)c1 [mCPP, 1-(3-Chlorophenyl)piperazine]
pEC50: 3.63 | Intrinsic activity at TAAR1 (in words): weak agonistic activity | Average Value (raw signal) (cAMP, Agonist, Conc(M) 1e-6): 1440.00 | Value 1 / Value 2 (raw signal) (cAMP, Agonist, Conc(M) 1e-6): 1520 and 1360 | Average Value (raw signal) (cAMP, Agonist, Conc(M) 1e-5): 1660.00 | Value 1 / Value 2 (raw signal) (cAMP, Agonist, Conc(M) 1e-5): 1520 and 1800 | Average Value (raw signal) (cAMP, Agonist, Conc(M) 0.0001): 2760.00 | Value 1 / Value 2 (raw signal) (cAMP, Agonist, Conc(M) 0.0001): 2560 and 2960 | Emax at 100 µM (cAMP, Agonist, Conc(M) 0.0001 (10^–4 M), read-out: % Efficacy (of the full agonist tyramine)): 34% | Average Value (raw signal) [1]: 1260.00 | Value 1 / Value 2 (raw signal) [1]: 1440 and 1080

NCCc1ccc(O)cc1 [p-Tyramine]
Curve Bottom (cAMP, Agonist): -5.337 | Curve Top (cAMP, Agonist): 100.3 | Hill (cAMP, Agonist): 1.0838 | Raw Value (cAMP, Agonist, Conc 0.0254026): 800 and 1040 | Raw Value (cAMP, Agonist, Conc 0.0762079): 1080 and 1160 | Percent Efficacy (cAMP, Agonist, Conc 0.228624): 12.1951 and 16.0976 | Raw Value (cAMP, Agonist, Conc 0.228624): 1640 | Percent Efficacy (cAMP, Agonist, Conc 0.685871): 41.0732 and 48.8781 | Raw Value (cAMP, Agonist, Conc 0.685871): 3120 and 3520 | Percent Efficacy (cAMP, Agonist, Conc 2.05761): 73.0732 and 71.5122 | Raw Value (cAMP, Agonist, Conc 2.05761): 4760 and 4680 | Percent Efficacy (cAMP, Agonist, Conc 6.17284): 84.7805 and 92.5854 | Raw Value (cAMP, Agonist, Conc 6.17284): 5360 and 5760 | Percent Efficacy (cAMP, Agonist, Conc 18.5185): 89.4634 and 99.6098 | Raw Value (cAMP, Agonist, Conc 18.5185): 5600 and 6120 | Percent Efficacy (cAMP, Agonist, Conc 55.5556): 100.39 and 104.293 | Raw Value (cAMP, Agonist, Conc 55.5556): 6160 and 6360 | Percent Efficacy (cAMP, Agonist, Conc 166.667): 105.073 and 97.2683 | Raw Value (cAMP, Agonist, Conc 166.667): 6400 and 6000 | Percent Efficacy (cAMP, Agonist, Conc 500): 107.415 and 90.2439 | Raw Value (cAMP, Agonist, Conc 500): 6520 and 5640 | Emax (cAMP, Agonist, read-out: Max Response): 101% | pEC50 (cAMP, Agonist, read-out: RC50 (Result Type EC50)): 6.10
